Source: paper PMC12154426, “TPP-Based Nanovesicles Kill MDR Neuroblastoma Cells and Induce Moderate ROS Increase, While Exerting Low Toxicity Towards Primary Cell Cultures: An In Vitro Study” (International Journal of Molecular Sciences, 2025)

Columns and labels:
cortical neurons = assay: MTT cytotoxicity assay on cortical neuron primary cell cultures; format: cell-based, Sprague Dawley rat; conditions: for IC50: 0.12–11.73 µM
From the text: Similarly to the assessment of haemolytic toxicity, the evaluation of cytotoxicity towards mammalian cells is another pivotal step to afford in the early stage of drug development, before undertaking other costly and time-consuming in vivo experiments. […] The cytotoxicity of quaternary phosphonium salts (QPSs) depends mainly on their physicochemical characteristics, including the number of carbon atoms of alkyl chains, the presence of aromatic ring(s) on which the P^+ cationic charge can delocalize, the type of counter anions, the possible colloidal properties, and the probable capability to form nano aggregates. The specific types of cells exposed to QPSs can further influence their cytotoxicity. In this regard, the constituents of membranes of cancer cells are different from those of mammalian cells. This makes them more susceptible to the disruptive action of cationic compounds, thus making QPSs’ possible cytotoxicity towards tumour cells higher than towards normal ones. Anyway, a certain cytotoxicity could manifest also in normal cells and quantifying it is mandatory. Based on these considerations, although NB is a neuroendocrine tumour which derives from neural crest cells, we investigated the BPPB toxic effects on primary cell cultures, namely spinal cord astrocytes and cortical neurons. Astrocyte primary cultures have emerged as an important tool for understanding the responses of normal cells under both physiological and pathological conditions. On the other hand, primary neuronal cell cultures are best suited for drug discovery and drug development. Primary cell cultures freshly prepared from animals reproduce physiological conditions astonishingly like the in vivo situation. As for our knowledge, it is the first time that the cytotoxicity of a bola amphiphilic compound is assessed on primary cultures of astrocytes and neurons. More generically, the existent studies on the cytotoxicity of synthetic QPSs, or of a generic exogenous synthetic cationic organic compound or polymer on astrocytes and neurons primary cell cultures, are limited. As examples, upon a rapid survey, we have found a study on the mechanism by which amine-modified cationic polystyrene nanoparticles induced cell death in a human brain astrocytoma cell line, but not in primary astrocytes. A study on the mechanism by which endogenous eosinophil cationic protein/RNase 3 induced cell death in primary astrocytes was found, but exogenous synthetic cationic compounds were not considered. Concerning primary neurons, the cytotoxicity of both a commercial (LA2000) and a newly prepared cationic lipid (Arg (TFA^−)) vs. primary neurons was assessed by Aoshima et al.. The cytotoxicity of a library of 80 compounds, among which only 2/3 molecules were cationic salts, was evaluated in human-induced pluripotent stem cell (iPSC)-derived neural stem cells, neurons, and astrocytes by Pei et al.. Vidal et al. assessed the neurotoxicity of a cationic fourth generation (G4) amine dendrimer (G4-NH2) towards primary neuron cell cultures. […] Cell viability in neurons and astrocytes, treated with increasing concentrations of BPPB for 24, 48, and 72 h, was assessed using the MTT essay, which is a method endowed with simplicity, convenience, quantitative and high throughput, as well as reproducibility. MTT is a well-established method for assessing cell viability, and its reliability is supported by standardized protocols in many areas of research.
Cortical neurons were prepared from the cortex of E16-E17 Sprague Dawley rat embryos, as previously described. The cortex was removed under binocular dissection (Nikon SMZ-2T, Tokyo, Japan) in a physiologic medium composed of 120 mM NaCl, 5 mM KCl, 25 mM HEPES, and 9 mM glucose (HIB, pH 7.4) at 4 °C. […]

HTLA 230 = assay: DAPI and Annexin-V/PI staining (necrosis/apoptosis), HTLA 230; format: cell-based, human; conditions: 0.5 µM, 24 h
From the text: Although it has been reported that diverse therapeutic approaches to counteract cancer, including chemotherapeutic drugs, gamma irradiation, suicide genes, or immunotherapy, are mediated through the induction of apoptosis, also necrosis, as well as other forms of cell death, that are not classified so far, may be triggered by anticancer therapies. Here, to evaluate if BPPB induced apoptosis or necrosis, both NB cell populations were labelled with Annexin-V-FITC/propidium iodide (PI) and analysed by confocal fluorescence microscopy, as reported in the literature. This is a standard procedure to monitor the progression of apoptosis and the possible presence of necrosis. […]
After the treatment, cells were washed with PBS and stained with the fluorescent DNA dye DAPI (1 µg/mL) for 30 min. After additional washing, the images were immediately acquired in the fluorescence mode using a Nikon AX R confocal microscope equipped with a PLAN APO 20× (Nikon Europe, B.V., Amstelveen, The Netherlands).
Apoptotic and necrotic cells were analysed, as described in Marengo et al.. […] After staining, the images were immediately acquired in fluorescence mode using a Nikon AX R confocal microscope equipped with a PLAN APO 20× (Nikon Europe, B.V., Amstelveen, The Netherlands).

## c1ccc([P+](CCCCCCCCCCCC[P+](c2ccccc2)(c2ccccc2)c2ccccc2)(c2ccccc2)c2ccccc2)cc1 [BPPB, 1,1-(1,12-dodecanediyl)-bis-[1,1,1]-triphenyl phosphonium di-bromide]
Cortical neurons; 0.12 µM, 24 h
  cell viability: 89.49%
Cortical neurons; 0.12 µM, 48 h
  cell viability: 96.77%
Cortical neurons; 0.12 µM, 72 h
  cell viability: 95.90%
Cortical neurons; 0.29 µM, 72 h
  cell viability: 71.80%
Cortical neurons; 1.80 µM, 48 h
  cell viability: 57.15%
Cortical neurons; 11.73 µM (10.0 µg/mL), 24 h
  cell viability: 14.80%
Cortical neurons; 11.73 µM (10.0 µg/mL), 48 h
  cell viability: 20.03%
Cortical neurons; 11.73 µM (10.0 µg/mL), 72 h
  cell viability: 10.63%
Cortical neurons; 24 h exposure
  IC50: 1560 ± 278 nM
Cortical neurons; 48 h exposure
  IC50: 2210 ± 336 nM
Cortical neurons; 72 h exposure
  IC50: 763 ± 127 nM
Cortical neurons; Cortical neurons vs. HTLA 230, 24 h
  SI 24 h: 1.69
Cortical neurons; Cortical neurons vs. HTLA 230, 48 h
  SI 48 h: 4.78
Cortical neurons; Cortical neurons vs. HTLA 230, 72 h
  SI 72 h: 1.96
Cortical neurons; Cortical neurons vs. HTLA ER, 24 h
  SI 24 h: 1.26
Cortical neurons; Cortical neurons vs. HTLA ER, 48 h
  SI 48 h: 1.63
Cortical neurons; Cortical neurons vs. HTLA ER, 72 h
  SI 72 h: 0.64
Cortical neurons; HTLA 230 and HTLA ER, all exposure timings except HTLA ER 72 h
  SI values with respect to primary cortical neurons: 1.26–4.78
HTLA 230
  apoptosis (Annexin V-FITC / PI labelling): marked apoptosis
  necrosis (DAPI labelling): seemed to induce the necrosis
